{"source": "ChEMBL document CHEMBL6078678", "about": "“Unveiling the Antimycobacterial Potential of Novel 4-Alkoxyquinolines: Insights into Selectivity, Mechanism of Action, and In Vivo Exposure” (J Med Chem, 2024)", "tested_on": "Mycobacterium tuberculosis", "assay": "Antibacterial activity against 2-(quinolin-4-yloxy)acetamide resistant Mycobacterium tuberculosis harboring qcrB gene T313A mutant", "assay_type": "functional"}
{"compound": "CCc1ccc(NCCCOc2cc(C)nc3ccc(Br)cc23)cc1", "values": [{"measurement": "MIC", "result": 3.13, "unit": "µM"}]}
